# From patent US20210330611A1, “THERAPY FOR NEUROLOGICAL DISEASES/DISORDERS” (priority 2020, published 2021)
# Counter-ions that a name gives are not always drawn. Like-named read-outs stand apart in the source and are kept apart here.
# Tests used:
# [1] = system: fibrin- and LPS-induced microglia activation; experiment: cells; assay type: cell-based, rat
# [2] = system: fibrin-induced microglia activation; experiment: Image-based assay of fibrin-induced microglia activation (HTS and dose response); assay type: cell-based, rat; conditions: for inhibition at 10 µM: Rattus norvegicus, Microglia, read-out: Fibrin % inhibition
# primary rat microglia [3] = experiment: Cell toxicity (dead cells, size <150 μm2) in coated fibrin (cFib) assay;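 also: share of dead cells sized under 150 µm2 at 10 µM in fibrin-stimulated microglia HTS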
# primary rat microglia [4] = experiment: Cell toxicity (dead cells, size <150 μm2) in LPS assay
# [5] = system: LPS-induced microglia activation; experiment: Image-based assay of LPS-induced microglia activation (HTS and dose response); assay type: cell-based, rat; conditions: for inhibition at 10 µM: Rattus norvegicus, Microglia, read-out: LPS % inhibition
# [6] = HTS of 1907 compounds, quadrant by fibrin and LPS inhibition
# [7] = primary microglia HTS, 10 μM, fibrin-stimulated, cell size >800 μm^2 as marker of activation
# [8] = primary microglia HTS, 10 μM, fibrin assay, cell size <150 μm^2 as marker of toxicity
# [9] = primary microglia HTS, 10 μM, LPS assay, cell size <150 μm^2 as marker of toxicity
# [10] = primary microglia HTS, 10 μM, LPS-stimulated, cell size >800 μm^2 as marker of activation
# [11] = quadrant by fibrin and LPS inhibition in HTS of 1907 compounds
# [12] = primary microglia HTS, fibrin stimulation, increased cell size (>800 μm^2) as marker of activation
# [13] = primary microglia HTS, fibrin stimulation, decreased size (<150 μm^2) as marker of toxicity
# [14] = primary microglia HTS, LPS stimulation, decreased size (<150 μm^2) as marker of toxicity
# [15] = 48 h, primary microglia HTS, LPS stimulation, increased cell size (>800 μm^2) as marker of activation
# [16] = primary HTS, 10 μM, fibrin-stimulated primary microglia
# [17] = primary HTS, 10 μM, fibrin assay, dead cells size <150 μm2
# [18] = primary HTS, 10 μM, LPS assay, dead cells size <150 μm2
# [19] = primary HTS, 10 μM, LPS-stimulated primary microglia
# [20] = primary microglia HTS, fibrin stimulation, activation = cell size >800 μm2
# [21] = primary microglia HTS, fibrin stimulation, toxicity = cell size <150 μm2
# [22] = primary microglia HTS, LPS stimulation, toxicity = cell size <150 μm2
# [23] = 48 h, primary microglia HTS, LPS stimulation, activation = cell size >800 μm2
smiles,measurement,setting,value
Cc1cc2cc3c(C)cc(=O)oc3c(C)c2o1 [Trioxsalen],Quadrant (FIG. 5b),[1]; [6],Q4
same,inhibition at 10 µM,[2]; [7],-18%
same,Fibrin % cell toxicity,primary rat microglia [3]; [8],1%
same,LPS % cell toxicity,primary rat microglia [4]; [9],0%
same,inhibition at 10 µM,[5]; [10],18%
NC(=O)N/N=C/c1ccc([N+](=O)[O-])o1 [Nitrofural],Quadrant (FIG. 5b),[1]; [11],Q4
same,inhibition at 10 µM,[2]; [12],-14%
same,Fibrin % cell toxicity,primary rat microglia [3]; [13],0%
same,LPS % cell toxicity,primary rat microglia [4]; [14],0%
same,inhibition at 10 µM,[5]; [15],1%
O=P(O)(O)C(Cl)(Cl)P(=O)(O)O [Clodronate],Quadrant (FIG. 5b),"[1]; primary HTS, 10 μM",Q4
same,inhibition at 10 µM,[2]; [16],-15%
same,Fibrin % cell toxicity,primary rat microglia [3]; [17],1%
same,LPS % cell toxicity,primary rat microglia [4]; [18],0%
same,inhibition at 10 µM,[5]; [19],1%
Nc1nc(N)nc(-c2cc(Cl)ccc2Cl)n1 [Irsogladine Maleate],Quadrant (FIG. 5b),[1]; [11],Q4
same,inhibition at 10 µM,[2]; [20],-27%
same,Fibrin % cell toxicity,primary rat microglia [3]; [21],1%
same,LPS % cell toxicity,primary rat microglia [4]; [22],0%
same,inhibition at 10 µM,[5]; [23],14%
O=C(O)CCC(=O)Nc1ccc(S(=O)(=O)Nc2nccs2)cc1 [Succinylsulfathiazole],Quadrant (FIG. 5b),[1]; [6],Q4
same,inhibition at 10 µM,[2]; [7],15%
same,Fibrin % cell toxicity,primary rat microglia [3]; [8],1%
same,LPS % cell toxicity,primary rat microglia [4]; [9],1%
same,inhibition at 10 µM,[5]; [10],16%
CN(C)CCC(c1ccc(Br)cc1)c1ccccn1 (centres unmarked) [Brompheniramine],Quadrant (FIG. 5b),"[1]; primary HTS, 10 μM",Q4
same,inhibition at 10 µM,[2]; [16],-20%
same,Fibrin % cell toxicity,primary rat microglia [3]; [17],1%
same,LPS % cell toxicity,primary rat microglia [4]; [18],−1%
same,inhibition at 10 µM,[5]; [19],-7%
O=C(O)c1cc(/N=N/c2ccc(O)c(C(=O)O)c2)ccc1O [Olsalazine],Quadrant (FIG. 5b),[1]; [11],Q4
same,inhibition at 10 µM,[2]; [12],-36%
same,Fibrin % cell toxicity,primary rat microglia [3]; [13],1%
same,LPS % cell toxicity,primary rat microglia [4]; [14],1%
same,inhibition at 10 µM,[5]; [15],22%
O=C(COc1ccc(Cl)cc1)N1CCN(Cc2ccc3c(c2)OCO3)CC1 [Fipexide Hydrochloride],Quadrant (FIG. 5b),[1]; [11],Q4
same,inhibition at 10 µM,[2]; [20],-15%
same,Fibrin % cell toxicity,primary rat microglia [3]; [21],0%
same,LPS % cell toxicity,primary rat microglia [4]; [22],0%
same,inhibition at 10 µM,[5]; [23],11%
O=C(O)CCNC(=O)c1ccccc1 [Betamipron],Quadrant (FIG. 5b),"[1]; primary HTS, 10 μM",Q4
same,inhibition at 10 µM,[2]; [16],-6%
same,Fibrin % cell toxicity,primary rat microglia [3]; [17],1%
same,LPS % cell toxicity,primary rat microglia [4]; [18],0%
same,inhibition at 10 µM,[5]; [19],14%
C[N+](C)(C)CC(O)CC(=O)O.[Cl-] (centres unmarked),Quadrant (FIG. 5b),"[1]; primary HTS, 10 μM",Q4
same,Fibrin % inhibition,[2]; [16],−23%
same,Fibrin % cell toxicity,primary rat microglia [3]; [17],1%
same,LPS % cell toxicity,primary rat microglia [4]; [18],0%
same,LPS % inhibition,[5]; [19],1%
CC1(C)S[C@@H]2[C@H](NC(=O)Cc3ccccc3)C(=O)N2[C@H]1C(=O)O [Benzylpenicillin],Quadrant (FIG. 5b),"[1]; primary HTS, 10 μM",Q4
same,inhibition at 10 µM,[2]; [16],29%
same,Fibrin % cell toxicity,primary rat microglia [3]; [17],1%
same,LPS % cell toxicity,primary rat microglia [4]; [18],0%
same,inhibition at 10 µM,[5]; [19],42%
O=C(O)[C@@H](S)[C@@H](S)C(=O)O [Succimer],Quadrant (FIG. 5b),[1]; [6],Q4
same,inhibition at 10 µM,[2]; [7],-37%
same,Fibrin % cell toxicity,primary rat microglia [3]; [8],0%
same,LPS % cell toxicity,primary rat microglia [4]; [9],0%
same,inhibition at 10 µM,[5]; [10],-5%
C#C[C@]1(O)CC[C@H]2[C@@H]3[C@H](C)CC4=C(CCC(=O)C4)[C@H]3CC[C@@]21C [Tibolone],Quadrant (FIG. 5b),[1]; [6],Q4
same,inhibition at 10 µM,[2]; [7],-8%
same,Fibrin % cell toxicity,primary rat microglia [3]; [8],0%
same,LPS % cell toxicity,primary rat microglia [4]; [9],0%
same,inhibition at 10 µM,[5]; [10],4%
C[N+](C)(C)CCOC(=O)CCC(=O)OCC[N+](C)(C)C [Succinylcholine],Quadrant (FIG. 5b),[1]; [6],Q4
same,inhibition at 10 µM,[2]; [7],-54%
same,Fibrin % cell toxicity,primary rat microglia [3]; [8],1%
same,LPS % cell toxicity,primary rat microglia [4]; [9],0%
same,inhibition at 10 µM,[5]; [10],-5%
CC(=O)OC(C)C[N+](C)(C)C (centres unmarked) [Methacholine],Quadrant (FIG. 5b),[1]; [11],Q4
same,inhibition at 10 µM,[2]; [12],2%
same,Fibrin % cell toxicity,primary rat microglia [3]; [13],1%
same,LPS % cell toxicity,primary rat microglia [4]; [14],0%
same,inhibition at 10 µM,[5]; [15],9%
CCN(CCCCOC(=O)c1ccc(OC)c(OC)c1)C(C)Cc1ccc(OC)cc1 (centres unmarked) [Mebeverine],Quadrant (FIG. 5b),[1]; [11],Q4
same,inhibition at 10 µM,[2]; [12],-11%
same,Fibrin % cell toxicity,primary rat microglia [3]; [13],0%
same,LPS % cell toxicity,primary rat microglia [4]; [14],0%
same,inhibition at 10 µM,[5]; [15],7%
